Experimental data as given in paper PMC9430360 (Microbiology Spectrum, 2022).

Experiments:
[1] = biological target: GI.1c/RHDV FRG 3CLpro (Rabbit hemorrhagic disease virus, UniProt P27410); experiment: FRET assay, 3CLpro of GI.1c/RHDV FRG strain; type: biochemical; conditions: 30 min preincubation with 3CLpro, 30 min with substrate, mean ± SEM, at least three experiments, read-out: IC50 GI.Ic/RHDV FRG
[2] = biological target: GI.3P-GI.2 TX1 3CLpro (Rabbit hemorrhagic disease virus 2, UniProt A0A7M4BDB7); experiment: FRET assay, 3CLpro of GI.3P-GI.2 TX1 strain; type: biochemical, GI.3P-GI.2 (RHDV2/b); conditions: 30 min preincubation with 3CLpro, 30 min with substrate, mean ± SEM, at least three experiments
[3] = biological target: GII.1/EBHSV G104 3CLpro (European brown hare syndrome virus, UniProt Q96725); experiment: FRET assay, 3CLpro of GII.1/EBHSV G104 strain; type: biochemical
GII.1/EBHSV G104 3CLpro, sequence (Q96725 1102-1244 limits assumed): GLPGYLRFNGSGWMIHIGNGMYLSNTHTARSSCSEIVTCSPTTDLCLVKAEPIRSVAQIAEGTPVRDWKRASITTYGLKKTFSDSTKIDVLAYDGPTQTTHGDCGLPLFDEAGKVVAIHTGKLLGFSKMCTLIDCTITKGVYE

[4] = biological target: T1, 3CLpro of GI.3P-GI.2 TX1 (Rabbit hemorrhagic disease virus 2, UniProt A0A7M4BDB7); experiment: cell-based; parameters: species or system GI.3P-GI.2 (RHDV2/b)
T1 sequence (A0A7M4BDB7 1109-1251): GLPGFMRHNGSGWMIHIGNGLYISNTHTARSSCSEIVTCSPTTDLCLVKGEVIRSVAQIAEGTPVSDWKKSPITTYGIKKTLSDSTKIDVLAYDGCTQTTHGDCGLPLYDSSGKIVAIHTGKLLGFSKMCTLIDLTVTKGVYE

[5] = Cytotoxicity assay (CytoTox 96, lactate dehydrogenase release); type: cell-based; conditions: human, 293T cells, up to 100 μM
Procedure: To determine the cytotoxicity of the compounds, 70 to 80% confluent 293T cells in a 96-well plate were incubated with serial dilutions of each compound (up to 100 μM) for 5 h. Cell cytotoxicity was determined by a CytoTox 96 nonradioactive assay kit (Promega, Madison, WI) by measuring a cytosolic enzyme lactate dehydrogenase, which is released upon cell lysis, following the manufacturer’s instructions, and the 50% cytotoxic concentration (CC50) value for each compound was calculated using GraphPad Prism software. The nonspecific cytotoxic effects of these compounds were also reported previously ([30], [31], [40], [43], [44]).

[6] = test system: FIPV 3CLpro; parameters: method as in PMID 30342822; conditions: FRET assay; read-out: IC50 against FIPV 3CLpro; cited from earlier work
[7] = test system: FIP; parameters: method as in PMID 27027316, PMID 28901812; conditions: cited from earlier work
[8] = test system: murine norovirus; parameters: method as in PMID 25761614; conditions: intestinal tracts of mice; cited from earlier work

GI.1c/RHDV FRG 3CLpro, sequence (P27410 1109-1251 limits assumed): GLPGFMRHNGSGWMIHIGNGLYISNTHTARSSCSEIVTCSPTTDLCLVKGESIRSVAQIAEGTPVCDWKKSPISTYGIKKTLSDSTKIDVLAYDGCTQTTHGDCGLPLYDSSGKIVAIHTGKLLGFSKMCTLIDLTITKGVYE

CC(C)CC(NC(=O)C(Cc1cccc2ccccc12)NC(=O)OCc1ccccc1)C(=O)NC(C=O)CC1CCNC1=O (stereo not shown) [NPI52]
IC50 [1]: 310 ± 20 nM | IC50 [2]: 570 ± 360 nM | IC50 [3]: 300 ± 90 nM | EC50 [4]: 4000 ± 430 nM | CC50 at 5 h [5]: > 100000 nM

CC(C)C[C@H](NC(=O)OCc1ccccc1)C(=O)N[C@H](C[C@@H]1CCNC1=O)C(O)S(=O)(=O)O (stereo partly shown) [GC376]
IC50 [1]: 1210 nM | IC50 [2]: 1390 nM | IC50 [3]: 1000 nM | EC50 [4]: 5350 ± 140 nM | CC50 at 5 h [5]: > 100000 nM | IC50 [6]: 500 nM | in vivo efficacy in cats with FIP [7]: reduced viral replication and improved survival

O=C(N[C@@H](CC1CCCCC1)C(=O)N[C@H](C[C@@H]1CCNC1=O)C(=O)C(=O)NC1CC1)OCc1cccc(Cl)c1 [GC591]
IC50 [1]: 590 ± 40 nM | IC50 [2]: 730 ± 270 nM | IC50 [3]: 430 ± 70 nM | EC50 [4]: 9800 ± 1260 nM | CC50 at 5 h [5]: > 100000 nM

O=C[C@@H](C[C@@H]1CCNC1=O)NC(=O)[C@H](CC1CCCCC1)NC(=O)OCc1ccccc1 [GC543]
IC50 [1]: 90 ± 30 nM | IC50 [2]: 120 ± 70 nM | IC50 [3]: 70 ± 10 nM | EC50 [4]: 550 ± 60 nM | CC50 at 5 h [5]: > 100000 nM

O=C[C@@H](C[C@@H]1CCNC1=O)NC(=O)[C@H](CC1CCCCC1)NC(=O)OCc1cccc(Cl)c1 [GC583]
IC50 [1]: 80 ± 20 nM | IC50 [2]: 100 ± 80 nM | IC50 [3]: 50 ± 10 nM | EC50 [4]: 460 ± 50 nM | CC50 at 5 h [5]: > 100000 nM | in vivo efficacy, murine norovirus replication [8]: significantly decreasing murine norovirus replication in the intestinal tracts of mice without toxicity
